What all share (assay): Binding to micellar cis-9-octadecenyl phosphocholine by UV absorption difference spectroscopy
What all share (details): micellar ligand, N = number of lipid monomers per molecule of enzyme, KD = micellar dissociation constant, read-out: N.KD apparent dissociation constant

The target of experiment [1] is T1, Porcine pancreatic phospholipase A₂, [ε-Ol-Lys¹¹⁶]-AMPA (Sus scrofa, UniProt P00592).
T1 construct: Conversion of pro-PLA (i.e. Prec) into [ε-Acyl-Lys¹¹⁶]-AMPA; from tissue; host or cells: pig pancreas; chemically amidinated and oleoylated at Lys116
The text has this: The following methods, in which the abbreviations used have the meanings given hereinafter, are used for determining the enzymatic activity, the lipid binding properties and the penetrating capacity of the site-specific mono-acylated phospholipases A2 belonging to the invention: -PLA: phospholipase […]: fully ε-amidinated pro-PLA -AMPA: fully ε-amidinated PLA -t-Boc: tertiary butoxycarbonyl -For: formyl -TFA: trifluoroacetic acid -Tris: tri(hydroxymethyl)amino methane -DFP: diisopropylfluorophosphate -DEAE: diethylamino ethyl -CM: carboxymethyl -FPLC: fast protein liquid chromatography -LC: liquid chromatography -TPCK: […]-2-ethanesulphonic acid -DABITC: dimethylamino azobenzene-iso-thiocyanate. • a. Protein concentrations are determined from the absorption at 280 nm using E 1 cm (1%) of 13.0 for porcine and bovine pancreatic ε-amidinated PLA and the mono-acylated analogs thereof. […] Monolayer experiments are carried out using the zero order through with two compartments and the surface barostat technique for measuring phospholipid hydrolysis ([…] and De Haas, Chem. Phys. Lipids, 10, (1973), 127-136). Calculation of the induction time (τ) is carried out as described by […] et al. J. Biol. Chem. 248 (1973), 4023-4034). Surface tension (π) is measured by means of the plate method by Wilhelmy using a thin platinum plate attached to a Beckman R II C Model LM 600 microbalance. • d. […]

Experiment [2] addresses T2, Bovine pancreatic phospholipase A₂ (PLA), native (Bos taurus, UniProt P00593).
T2 construct: pancreatic pro-PLA's can be purified and converted into the corresponding PLA's; from tissue; host or cells: bovine pancreas
The text has this: (§1) The following methods, in which the abbreviations used have the meanings given hereinafter, are used for determining the enzymatic activity, the lipid binding properties and the penetrating capacity of the site-specific mono-acylated phospholipases A2 belonging to the invention: -PLA: phospholipase […]: fully ε-amidinated pro-PLA -AMPA: fully ε-amidinated PLA -t-Boc: tertiary butoxycarbonyl -For: formyl -TFA: trifluoroacetic acid -Tris: tri(hydroxymethyl)amino methane -DFP: diisopropylfluorophosphate -DEAE: diethylamino ethyl -CM: carboxymethyl -FPLC: fast protein liquid chromatography -LC: liquid chromatography -TPCK: […]-2-ethanesulphonic acid -DABITC: dimethylamino azobenzene-iso-thiocyanate. • a. Protein concentrations are determined from the absorption at 280 nm using E 1 cm (1%) of 13.0 for porcine and bovine pancreatic ε-amidinated PLA and the mono-acylated analogs thereof. […] Monolayer experiments are carried out using the zero order through with two compartments and the surface barostat technique for measuring phospholipid hydrolysis ([…] and De Haas, Chem. Phys. Lipids, 10, (1973), 127-136). Calculation of the induction time (τ) is carried out as described by […] et al. J. Biol. Chem. 248 (1973), 4023-4034). Surface tension (π) is measured by means of the plate method by Wilhelmy using a thin platinum plate attached to a Beckman R II C Model LM 600 microbalance. • d. Kinetic measurements with micellar diC8PC are carried out according to De Haas et al, Biochem. Biophys. Acta, 239, (1971) 252-266. […] From the table it appears that the presence of a covalently attached long chain fatty acid on […] or […] considerably improves the binding of the enzyme to the zwitterionic detergent. A larger chain length of the fatty acid leads to a lower apparent dissociation constant (N.KD), which means a greater affinity to the organized lipid-water interface which is formed by the micellar substrate analog. [table]

Experiment [3] deals with T3, Bovine pancreatic phospholipase A₂, AMPA (fully ε-amidinated PLA) (Bos taurus, UniProt P00593).
T3 construct: fully ε-amidinated according to the method by Wallace and Harris, Biochem. J., 217, (1984), 589-594, and converted into AMPA; from tissue; host or cells: bovine pancreas; chemically amidinated as the pro-enzyme, then converted to the active enzyme
Description: as §1

Experiment [4] deals with T4, Bovine pancreatic phospholipase A₂, [Arg⁶,ε-Pal-Lys¹⁰]-AMPA (Bos taurus, UniProt P00593, N28R).
T4 construct: Conversion of fully ε-amidinated bovine pancreatic AMPrec in [Arg⁶, ε-Pal-Lys¹⁰]-AMPA; from tissue; host or cells: bovine pancreas; semisynthetic: amidinated fragment 11-123 re-elongated with Pal-Lys, Ile, Met and Ala.Leu.Trp.Gln.Phe.Arg.Gly
Description: as §1

Experiment [5] concerns the target T5, Bovine pancreatic phospholipase A₂, [Arg⁶]-AMPA (Bos taurus, UniProt P00593, N28R).
T5 construct: fully ε-amidinated according to the method by Wallace and Harris, Biochem. J., 217, (1984), 589-594, and converted into AMPA; from tissue; host or cells: bovine pancreas
Description: as §1

In experiment [6] the target is T6, Porcine pancreatic phospholipase A₂ (PLA), native (Sus scrofa, UniProt P00592).
T6 construct: pancreatic pro-PLA's can be purified and converted into the corresponding PLA's; from tissue; host or cells: pig pancreas
Description: as §1

In experiment [7] the target is T7, Porcine pancreatic phospholipase A₂, AMPA (fully ε-amidinated PLA) (Sus scrofa, UniProt P00592).
T7 construct: fully ε-amidinated according to the method by Wallace and Harris, Biochem. J., 217, (1984), 589-594, and converted into AMPA; from tissue; host or cells: pig pancreas; chemically amidinated as the pro-enzyme, then converted to the active enzyme
Description: as §1

The target of experiment [8] is T8, Porcine pancreatic phospholipase A₂, [ε-Ac-Lys¹¹⁶]-AMPA (Sus scrofa, UniProt P00592).
T8 construct: Conversion of pro-PLA (i.e. Prec) into [ε-Acyl-Lys¹¹⁶]-AMPA; from tissue; host or cells: pig pancreas; chemically amidinated and acetylated at Lys116
Description: as §1

Experiment [9] deals with T9, Porcine pancreatic phospholipase A₂, [ε-Cap-Lys¹¹⁶]-AMPA (Sus scrofa, UniProt P00592).
T9 construct: Conversion of pro-PLA (i.e. Prec) into [ε-Acyl-Lys¹¹⁶]-AMPA; from tissue; host or cells: pig pancreas; chemically amidinated and caprinoylated at Lys116
Description: as §1

For experiment [10], the target named is T10, Porcine pancreatic phospholipase A₂, [ε-Lau-Lys¹¹⁶]-AMPA (Sus scrofa, UniProt P00592).
T10 construct: Conversion of pro-PLA (i.e. Prec) into [ε-Acyl-Lys¹¹⁶]-AMPA; from tissue; host or cells: pig pancreas; chemically amidinated and lauroylated at Lys116
Description: as §1

The target of experiment [11] is T11, Porcine pancreatic phospholipase A₂, [ε-Mal-Lys¹¹⁶]-AMPA (Sus scrofa, UniProt P00592).
T11 construct: Conversion of pro-PLA (i.e. Prec) into [ε-Acyl-Lys¹¹⁶]-AMPA; from tissue; host or cells: pig pancreas; chemically amidinated and maleylated at Lys116
Description: as §1

The target in experiment [12] is T12, Porcine pancreatic phospholipase A₂, [ε-NH₂-Lys¹¹⁶]-AMPA (Sus scrofa, UniProt P00592).
T12 construct: incubated with 0.1% (wt/wt) trypsin at pH 8.0 (10 mM Tris, 5 mM Ca²⁺) in order to obtain [ε-NH₂-Lys-]AMPA; from tissue; host or cells: pig pancreas; partial amidination in the presence of diC8GS, then trypsin conversion of the pro-enzyme
Description: as §1

For experiment [13], the target named is T13, Porcine pancreatic phospholipase A₂, [ε-Pal-Lys¹¹⁶]-AMPA (Sus scrofa, UniProt P00592).
T13 construct: Conversion of pro-PLA (i.e. Prec) into [ε-Acyl-Lys¹¹⁶]-AMPA; from tissue; host or cells: pig pancreas; chemically amidinated and palmitoylated at Lys116
Description: as §1

T2 sequence (P00593 23-145): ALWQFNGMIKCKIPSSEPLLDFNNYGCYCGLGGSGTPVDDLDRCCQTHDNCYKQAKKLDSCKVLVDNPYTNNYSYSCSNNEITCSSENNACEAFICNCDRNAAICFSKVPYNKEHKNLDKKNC
T3 sequence (P00593 23-145): as above
T8 sequence (P00592 23-146): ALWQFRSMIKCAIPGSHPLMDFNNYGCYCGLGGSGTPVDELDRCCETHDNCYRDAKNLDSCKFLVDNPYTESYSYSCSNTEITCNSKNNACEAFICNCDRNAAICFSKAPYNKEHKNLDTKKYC
T13 sequence (P00592 23-146): as above
T10 sequence (P00592 23-146): as above
T9 sequence (P00592 23-146): as above
T1 sequence (P00592 23-146): as above
T7 sequence (P00592 23-146): as above
T11 sequence (P00592 23-146): as above
T6 sequence (P00592 23-146): as above
T12 sequence (P00592 23-146): as above
T4 sequence (P00593 23-145 N28R): as the sequence (P00593 23-145) above, with N6R counted along it
T5 sequence (P00593 23-145 N28R): as the sequence (P00593 23-145) above, with N6R counted along it

On to `CCCCCCCC/C=C\CCCCCCCCOP(=O)([O-])OCC[N+](C)(C)C` [cis-9-octadecenylphosphocholine], for which the Kd in experiment [1] came out at 18 µM; in [2], 660 µM; in [3] it was 3.2 mM; in experiment [4] it was 20 µM; in [5], 120 µM; in [6], 58 µM. In addition, the Kd in [7] is 76 µM; in experiment [8], 38 µM; in experiment [9] it was 33 µM; in experiment [10], 29 µM; in [11], 43 µM; in experiment [12], 44 µM. Further, in experiment [13], the Kd turned out to be 12 µM.
